Reference: US10011573B2, “Human androgen receptor DNA-binding domain (DBD) compounds as therapeutics and methods for their use” (The University of British Columbia, priority 2014, dated 2018)
Numbering of substitutions follows the chain as printed. Each block holds one compound with its values, some of them ahead of it.

Assays:
[1] = molecular target: T1, AR(1-653) truncation mutant (Homo sapiens, UniProt P10275); conditions: 25 μM, PC3 cells, ARR3tk-luciferase; cited from earlier work
T1 construct: host or cells: PC3 co-transfected with ARR3tk-luciferase

PSA [2] = assay: Prostate-specific antigen (PSA) assay, secreted PSA from the eGFP assay plates; format: cell-based, human; conditions: Homo sapiens
Description: 3. Prostate-specific antigen (PSA) assay: The evaluation of PSA levels secreted into the media was performed in parallel to the eGFP assay using the same plates. After cells were incubated for 3 days, 150 μl of the media was taken from each well, and added to 150 μl of PBS.

ER-α = molecular target: T2, ER-α (Homo sapiens, UniProt P03372); assay: Estrogen-response element-luciferase assay in MCF-7 cells; format: cell-based
T2 construct: endogenous in cells; host or cells: MCF-7 with ERE-luciferase reporter
Description: (§1) 9. Transient Transfection: The PC3/MCF7 cells were seeded into a 96-well plate (2,000 cells/well). After 24 hrs, the wild-type AR (50 ng/well)/AR mutants and AR3TK-luciferase plasmids (1:3) were co-transfected into PC3 cells or ERE-luciferase (50 ng/well) was transfected into MCF7 cells using transfection reagent TT20. 24 hrs after the transfection, the cells were treated with the compounds at various concentrations. And 24 hrs later, the cells were lysed and the reading was taken using a luminometer.

PSA [3] = assay: PSA measurements, LNCaP cells, 1 nM R1881, 2 days; format: cell-based, human
Description: Following the incubation period, 150 μl of the media was taken from each well, and PSA levels were quantified using a Cobas e411 analyzer (Roche Applied Science™) according to the manufacturer's instructions. The same instrument was used to analyze serum PSA from mice during the in vivo analysis.

FKBP5 [4] = assay: Western blot FKBP5 protein in R1-AD1 cells; format: cell-based, human
Description: (§2) Cell lysates (40 μl) from luciferase assays (96-well plate) were separated on a 10% SDS-polyacrylamide mini gel. Protein was transferred to methanol-charged PVDF membranes and probed with anti-AR441 (mouse, Sigma™) monoclonal primary antibody. Blots were also probed with polyclonal anti-actin (rabbit, Sigma™) to show equal loading and polyclonal anti-PARP/anti-cleaved PARP (rabbit, Sigma™) to test for induction of apoptosis. Lysates from CWR-R1 cells were additionally probed with polyclonal anti-FKBP5 (rabbit, Sigma™) following 2 days of incubation with compounds.

FKBP5 [5] = assay: Western blot FKBP5 protein in R1-D567 cells; format: cell-based, human
Description: as §2

[6] = molecular target: T3, AR hormone binding site (recombinant wild type LBD) (Rattus norvegicus, UniProt P15207); assay: Androgen displacement assay (Polar Screen Androgen Receptor Competitor Green Assay Kit); conditions: fluorescence polarization
T3 construct: displace DHT from the ABS site of recombinant wild type LBD
T3 sequence (P15207 651-882 limits assumed): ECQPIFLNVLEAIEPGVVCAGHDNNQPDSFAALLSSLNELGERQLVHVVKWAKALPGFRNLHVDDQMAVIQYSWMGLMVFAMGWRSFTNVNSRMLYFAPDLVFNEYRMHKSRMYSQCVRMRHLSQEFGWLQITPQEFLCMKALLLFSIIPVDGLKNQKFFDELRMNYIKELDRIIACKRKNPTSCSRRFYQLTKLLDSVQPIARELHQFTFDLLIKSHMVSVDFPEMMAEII
Description: 5. Androgen displacement assay: The androgen displacement was assessed with the Polar Screen Androgen Receptor Competitor Green Assay Kit as per the instructions of the manufacturer (Lack, Axerio-Cilies et al. 2011).
The ability of the above chemicals to displace DHT from the ABS site of recombinant wild type LBD was measured using a fluorescent polarization assay (PolarScreen™, Life Technologies) at various concentrations.

full-length human AR = molecular target: T4, full-length human AR (Homo sapiens, UniProt P10275); assay: ARR3tk-luciferase reporter assay in PC3 cells, wild-type AR; format: cell-based
T4 construct: expressed in transfected cells; host or cells: PC3 (AR-negative human prostate cancer cells)
T4 sequence (P10275 1-920): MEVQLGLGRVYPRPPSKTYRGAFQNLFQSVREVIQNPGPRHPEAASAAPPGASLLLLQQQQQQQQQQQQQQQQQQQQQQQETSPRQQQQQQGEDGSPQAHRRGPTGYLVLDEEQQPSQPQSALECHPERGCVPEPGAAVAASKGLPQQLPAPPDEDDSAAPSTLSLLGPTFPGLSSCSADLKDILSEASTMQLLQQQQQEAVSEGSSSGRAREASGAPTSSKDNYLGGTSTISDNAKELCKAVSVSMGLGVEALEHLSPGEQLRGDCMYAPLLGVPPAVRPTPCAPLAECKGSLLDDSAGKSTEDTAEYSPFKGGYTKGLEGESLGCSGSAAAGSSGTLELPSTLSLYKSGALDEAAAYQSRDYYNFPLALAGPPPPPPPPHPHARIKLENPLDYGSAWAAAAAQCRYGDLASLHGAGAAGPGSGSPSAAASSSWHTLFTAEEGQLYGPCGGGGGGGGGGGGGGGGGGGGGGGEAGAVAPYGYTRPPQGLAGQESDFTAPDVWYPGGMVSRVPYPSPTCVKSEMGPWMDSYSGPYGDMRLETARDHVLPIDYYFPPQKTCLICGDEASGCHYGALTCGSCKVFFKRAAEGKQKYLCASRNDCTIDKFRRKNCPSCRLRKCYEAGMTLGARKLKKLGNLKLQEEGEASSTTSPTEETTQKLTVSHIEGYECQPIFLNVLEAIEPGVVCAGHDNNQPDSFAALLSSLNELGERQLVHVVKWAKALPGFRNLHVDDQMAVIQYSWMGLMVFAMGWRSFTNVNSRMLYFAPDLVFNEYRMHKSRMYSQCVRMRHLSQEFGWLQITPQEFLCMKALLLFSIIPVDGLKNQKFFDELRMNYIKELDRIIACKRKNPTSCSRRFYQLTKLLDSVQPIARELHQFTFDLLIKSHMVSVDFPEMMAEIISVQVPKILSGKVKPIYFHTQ
Description: as §1

T877A-AR mutant = molecular target: T5, T877A-AR mutant (Homo sapiens, UniProt P10275, T878A); assay: Luciferase reporter assay in PC3 cells, T877A-AR; format: cell-based; conditions: presence and absence of R1881
T5 construct: expressed in transfected cells; host or cells: PC3
Description: as §1

endogenous wild type AR = assay: ARR3tk-luciferase assay in R1-AD1 cells; format: cell-based, human; conditions: 0.1 nM R1881
androgen receptor (AR) = molecular target: T6, androgen receptor (AR) (Homo sapiens, UniProt P10275, T878A); assay: eGFP cellular AR transcription assay (LNCaP eGFP cells, LN-ARR2PB-eGFP)
T6 sequence (P10275 1-920 T878A): T4 sequence (P10275 1-920) with T878A

T5 sequence (P10275 whole entry T878A): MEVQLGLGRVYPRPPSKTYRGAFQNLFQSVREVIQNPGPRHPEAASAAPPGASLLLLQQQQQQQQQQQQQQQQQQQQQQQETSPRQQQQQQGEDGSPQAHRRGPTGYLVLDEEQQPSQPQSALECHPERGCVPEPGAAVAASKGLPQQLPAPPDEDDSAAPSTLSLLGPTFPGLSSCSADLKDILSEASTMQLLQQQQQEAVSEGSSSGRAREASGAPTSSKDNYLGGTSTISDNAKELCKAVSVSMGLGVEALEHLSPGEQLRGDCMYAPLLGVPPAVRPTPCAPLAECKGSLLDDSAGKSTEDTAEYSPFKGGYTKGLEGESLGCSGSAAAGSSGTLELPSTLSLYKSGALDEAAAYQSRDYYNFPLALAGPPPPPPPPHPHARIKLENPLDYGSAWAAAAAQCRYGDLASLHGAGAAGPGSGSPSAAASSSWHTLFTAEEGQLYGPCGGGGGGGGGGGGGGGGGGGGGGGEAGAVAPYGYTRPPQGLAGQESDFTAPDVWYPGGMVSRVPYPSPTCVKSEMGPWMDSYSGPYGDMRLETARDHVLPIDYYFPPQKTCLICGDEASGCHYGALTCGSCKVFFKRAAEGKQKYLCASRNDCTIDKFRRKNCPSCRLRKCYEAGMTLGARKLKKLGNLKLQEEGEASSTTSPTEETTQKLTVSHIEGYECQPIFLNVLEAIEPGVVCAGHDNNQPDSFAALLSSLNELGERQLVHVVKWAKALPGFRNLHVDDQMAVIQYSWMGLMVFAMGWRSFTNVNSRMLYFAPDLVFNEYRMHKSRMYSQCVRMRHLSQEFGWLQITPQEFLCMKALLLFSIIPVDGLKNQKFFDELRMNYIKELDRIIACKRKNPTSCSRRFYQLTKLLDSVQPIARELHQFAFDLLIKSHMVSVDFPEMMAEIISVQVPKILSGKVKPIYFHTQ
T2 sequence (P03372 whole entry): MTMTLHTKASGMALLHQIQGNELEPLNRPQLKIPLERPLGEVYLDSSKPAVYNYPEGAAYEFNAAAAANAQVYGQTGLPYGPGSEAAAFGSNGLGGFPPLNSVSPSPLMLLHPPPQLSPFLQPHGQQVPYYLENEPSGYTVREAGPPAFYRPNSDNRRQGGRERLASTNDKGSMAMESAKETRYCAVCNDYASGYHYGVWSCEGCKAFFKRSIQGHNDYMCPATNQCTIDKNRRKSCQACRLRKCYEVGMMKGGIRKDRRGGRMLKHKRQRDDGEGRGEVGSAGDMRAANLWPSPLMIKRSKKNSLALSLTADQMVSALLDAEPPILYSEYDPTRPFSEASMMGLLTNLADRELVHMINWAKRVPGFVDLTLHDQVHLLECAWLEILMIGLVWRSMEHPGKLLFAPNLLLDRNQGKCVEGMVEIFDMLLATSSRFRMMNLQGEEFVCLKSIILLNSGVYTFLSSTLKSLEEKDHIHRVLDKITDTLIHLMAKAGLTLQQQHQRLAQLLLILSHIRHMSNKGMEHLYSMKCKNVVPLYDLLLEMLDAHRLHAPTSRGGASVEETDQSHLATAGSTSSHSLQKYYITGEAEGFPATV

SMILES: CC(C)(c1ccc(OCC(O)CO)cc1)c1ccc(OCC(O)CCl)cc1 (stereo not drawn) [EPI-001]
inhibition of AR(1-653) truncation mutant [1]: ~80%

IC50 (PSA [2]; LNCaP eGFP cells, R1881, secreted PSA): 120 nM
effect on ER transcriptional activity (ER-α): considerable cross-reactivity
IC50 secreted PSA (PSA [3]): sub-micromolar
SMILES: CNC(=O)c1ccc(N2C(=S)N(c3ccc(C#N)c(C(F)(F)F)c3)C(=O)C2(C)C)cc1F [enzalutamide, reference compound]
FKBP5 protein expression, R1-AD1 cells (FKBP5 [4]): only affected R1-AD1 cells
FKBP5 protein expression, R1-D567 cells (FKBP5 [5]): only affected R1-AD1 cells

IC50 (PSA [2]; Series 1): 130 nM
IC50 [6]: 31300 nM
concentration inducing transcriptional activation of T877A AR mutant (T877A-AR mutant): higher than 0.4 μM
IC50 (androgen receptor (AR); eGFP IC50 (μM), Series 1): 0.03 µM
IC50 (androgen receptor (AR); eGFP IC50, LNCaP eGFP cells, 0.1 nM R1881): 0.035 µM
SMILES: COc1c(F)cccc1-c1csc(N2CCOCC2)n1 [Compound 14368]
AR transcription, wild type AR, presence of R1881 (full-length human AR): inhibited by 14368 in a dose response manner
AR transcriptional activity, wild type AR, absence of androgen (full-length human AR): only a basal level of transcriptional activity
agonistic effect at high concentrations (endogenous wild type AR): not observed
AR transcriptional activity in the absence of R1881 (androgen receptor (AR); LNCaP eGFP cells without R1881): vigorously enhance AR transcriptional activity
